Experiment: recombinant UMI read abundance after kanamycin selection (control-corrected) (log10(CPM+1)); higher = more efficient recombination; extreme values may be limits of the assay; sequences stand for … in AGTGCAGAGAAAATCGGCCAGTTTTCTCTGCCTGCAGTCCGCATGCCGTGGGACCCCTTGGGTTCTAACCTGTTGCCTAGATTTATGCAGCGGACTGCCTTTCTCCCAAAGTGATAAACCGG…AGGTTGGTTTCACT; site = the 11-nt donor
Experimental: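 Pooled E. coli donor-specificity screen for the IS621 bridge recombinase. Each library member carries a reprogrammed 11-nt donor and a full-length LE bridge RNA expressed in cis from the natural promoter, with a paired donor-binding loop (8-nt LDG + 4-nt RDG) and a target-binding loop fixed to T5. It is co-electroporated with a T5 target plasmid; recombinase is induced with 0.07 mM IPTG and recombinants are selected on kanamycin. UMIs are counted as CPM, averaged over two biological replicates and corrected by the unselected control. Molecule = full bridge RNA written as DNA, built from the T5 scaffold: LDG = donor specificity nt 1-8, RDG = reverse complement of nt 8-11.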
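Note: IS621 bridge recombinase in Escherichia coli cells against a fixed T5 target plasmid.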

Row | Sequence | recombinant UMI read abundance (log10)
1 | ACCACCGCATGGACCGGTTTTCCCGGTAATCCGTATTTGCG (site GCCACCGCTCG) | 0
2 | ACCACCGCATGGACCGGTTTTCCCGGTAATCCGTATTTGCG (site TCCACCGCTCG) | 0.0102
3 | ACCACTCCATGGACCGGTTTTCCCGGTAATCCGTATTTGTA (site ACCACTCCTTA) | 0.852
4 | ACCAGCCCATGGACCGGTTTTCCCGGTAATCCGTATTTGAT (site ACCAGCCCTAT) | 0.0092
5 | ACCCAGACATGGACCGGTTTTCCCGGTAATCCGTATTTGGG (site ACCAAGACTCC) | 0.0107
6 | ACCCAGACATGGACCGGTTTTCCCGGTAATCCGTATTTGGG (site ACCCAGACTCC) | 0.036
7 | ACCCAGACATGGACCGGTTTTCCCGGTAATCCGTATTTGGG (site ACCGAGACTCC) | 0.00445
8 | ACCCAGACATGGACCGGTTTTCCCGGTAATCCGTATTTGGG (site ACCTAGACTCC) | 0.00599
9 | ACCCATACATGGACCGGTTTTCCCGGTAATCCGTATTTGAA (site ACCCATACTTT) | 1.34
10 | ACCCGAACATGGACCGGTTTTCCCGGTAATCCGTATTTGTC (site ACACGAACTGA) | 0
11 | ACCCGAACATGGACCGGTTTTCCCGGTAATCCGTATTTGTC (site ACCCGAACTGA) | 1.95
12 | ACCCGAACATGGACCGGTTTTCCCGGTAATCCGTATTTGTC (site ACGCGAACTGA) | 0
13 | ACCCGAACATGGACCGGTTTTCCCGGTAATCCGTATTTGTC (site ACTCGAACTGA) | 0
14 | ACCCTAGCATGGACCGGTTTTCCCGGTAATCCGTATTTGTT (site AACCTAGCTAA) | 0.0322
15 | ACCCTAGCATGGACCGGTTTTCCCGGTAATCCGTATTTGTT (site ACCCTAGCTAA) | 0
16 | ACCCTAGCATGGACCGGTTTTCCCGGTAATCCGTATTTGTT (site AGCCTAGCTAA) | 0.00512
17 | ACCCTAGCATGGACCGGTTTTCCCGGTAATCCGTATTTGTT (site ATCCTAGCTAA) | 0.016
18 | ACCCTGTCATGGACCGGTTTTCCCGGTAATCCGTATTTGGG (site ACCCTGTCTCC) | 0
19 | ACCGAGCCATGGACCGGTTTTCCCGGTAATCCGTATTTGCG (site ACCGAGCCTCG) | 0.0257
20 | ACCGTAGCATGGACCGGTTTTCCCGGTAATCCGTATTTGTG (site ACCGTAGCTCA) | 0.533
21 | ACCGTATCATGGACCGGTTTTCCCGGTAATCCGTATTTGCA (site ACAGTATCTTG) | 2.58
22 | ACCGTATCATGGACCGGTTTTCCCGGTAATCCGTATTTGCA (site ACCGTATCTTG) | 2.45
23 | ACCGTATCATGGACCGGTTTTCCCGGTAATCCGTATTTGCA (site ACGGTATCTTG) | 0.962
24 | ACCGTATCATGGACCGGTTTTCCCGGTAATCCGTATTTGCA (site ACTGTATCTTG) | 0.874

Row | Sequence | recombinant UMI read abundance (log10)
25 | ACCGTGGCATGGACCGGTTTTCCCGGTAATCCGTATTTGGA (site ACCGTGGCTTC) | 0.325
26 | ACCGTTACATGGACCGGTTTTCCCGGTAATCCGTATTTGTC (site ACCGTTACTGA) | 1.49
27 | ACCTAAACATGGACCGGTTTTCCCGGTAATCCGTATTTGGG (site ACCTAAACTCC) | 0.256
28 | ACCTAAACATGGACCGGTTTTCCCGGTAATCCGTATTTGGG (site ACCTACACTCC) | 0.0196
29 | ACCTAAACATGGACCGGTTTTCCCGGTAATCCGTATTTGGG (site ACCTAGACTCC) | 0.0149
30 | ACCTAAACATGGACCGGTTTTCCCGGTAATCCGTATTTGGG (site ACCTATACTCC) | 0.0143
31 | ACCTACACATGGACCGGTTTTCCCGGTAATCCGTATTTGGG (site ACCTAAACTCC) | 0.00329
32 | ACCTACACATGGACCGGTTTTCCCGGTAATCCGTATTTGGG (site ACCTACACTCC) | 0.0331
33 | ACCTACACATGGACCGGTTTTCCCGGTAATCCGTATTTGGG (site ACCTAGACTCC) | 0.00747
34 | ACCTACACATGGACCGGTTTTCCCGGTAATCCGTATTTGGG (site ACCTATACTCC) | 0.0213
35 | ACCTAGACATGGACCGGTTTTCCCGGTAATCCGTATTTGCG (site ACCTAGACTCA) | 0.0199
36 | ACCTAGACATGGACCGGTTTTCCCGGTAATCCGTATTTGCG (site ACCTAGACTCC) | 0.0218
37 | ACCTAGACATGGACCGGTTTTCCCGGTAATCCGTATTTGCG (site ACCTAGACTCG) | 1.58
38 | ACCTAGACATGGACCGGTTTTCCCGGTAATCCGTATTTGCG (site ACCTAGACTCT) | 0.262
39 | ACCTAGACATGGACCGGTTTTCCCGGTAATCCGTATTTGGC (site ACCTAGACTAC) | 0.532
40 | ACCTAGACATGGACCGGTTTTCCCGGTAATCCGTATTTGGC (site ACCTAGACTCC) | 0.0128
41 | ACCTAGACATGGACCGGTTTTCCCGGTAATCCGTATTTGGC (site ACCTAGACTGC) | 1.82
42 | ACCTAGACATGGACCGGTTTTCCCGGTAATCCGTATTTGGC (site ACCTAGACTTC) | 0.00402
43 | ACCTAGACATGGACCGGTTTTCCCGGTAATCCGTATTTGTG (site ACCTAGACTCA) | 0.799
44 | ACCTAGACATGGACCGGTTTTCCCGGTAATCCGTATTTGTG (site ACCTAGACTCC) | 0.114
45 | ACCTAGACATGGACCGGTTTTCCCGGTAATCCGTATTTGTG (site ACCTAGACTCG) | 0.469
46 | ACCTAGACATGGACCGGTTTTCCCGGTAATCCGTATTTGTG (site ACCTAGACTCT) | 0.22
47 | ACCTAGCCATGGACCGGTTTTCCCGGTAATCCGTATTTGGG (site ACCTAGACTCC) | 0.00935
48 | ACCTAGCCATGGACCGGTTTTCCCGGTAATCCGTATTTGGG (site ACCTAGCCTCC) | 0.00989

Row | Sequence | recombinant UMI read abundance (log10)
49 | ACCTAGCCATGGACCGGTTTTCCCGGTAATCCGTATTTGGG (site ACCTAGGCTCC) | 0.0311
50 | ACCTAGCCATGGACCGGTTTTCCCGGTAATCCGTATTTGGG (site ACCTAGTCTCC) | 0.0502
51 | ACCTATACATGGACCGGTTTTCCCGGTAATCCGTATTTGGG (site ACCTAAACTCC) | 0.00642
52 | ACCTATACATGGACCGGTTTTCCCGGTAATCCGTATTTGGG (site ACCTACACTCC) | 0.0606
53 | ACCTATACATGGACCGGTTTTCCCGGTAATCCGTATTTGGG (site ACCTAGACTCC) | 0.0071
54 | ACCTATACATGGACCGGTTTTCCCGGTAATCCGTATTTGGG (site ACCTATACTCC) | 0.0144
55 | ACCTCATCATGGACCGGTTTTCCCGGTAATCCGTATTTGGT (site ACCTCATCTAC) | 0.128
56 | ACCTCCGCATGGACCGGTTTTCCCGGTAATCCGTATTTGAG (site ACCTCCGCTCT) | 0.147
57 | ACCTCTCCATGGACCGGTTTTCCCGGTAATCCGTATTTGCA (site ACCTCTCCTTG) | 0.367
58 | ACCTGGACATGGACCGGTTTTCCCGGTAATCCGTATTTGAG (site ACCTGGACTCT) | 1.41
59 | ACCTTTCCATGGACCGGTTTTCCCGGTAATCCGTATTTGGT (site ACCTTTCCTAC) | 0
60 | ACGAAAACATGGACCGGTTTTCCCGGTAATCCGTATTTGCT (site ACGAAAACTAG) | 1.81
61 | ACGAAAACATGGACCGGTTTTCCCGGTAATCCGTATTTGCT (site CCGAAAACTAG) | 0
62 | ACGAAAACATGGACCGGTTTTCCCGGTAATCCGTATTTGCT (site GCGAAAACTAG) | 0.581
63 | ACGAAAACATGGACCGGTTTTCCCGGTAATCCGTATTTGCT (site TCGAAAACTAG) | 0
64 | ACGAATCCATGGACCGGTTTTCCCGGTAATCCGTATTTGTT (site ACGAATCCTAA) | 1.32
65 | ACGAATCCATGGACCGGTTTTCCCGGTAATCCGTATTTGTT (site CGGAATCCTAA) | 0
66 | ACGACCACATGGACCGGTTTTCCCGGTAATCCGTATTTGTT (site ACGACCACTAA) | 1.29
67 | ACGACTACATGGACCGGTTTTCCCGGTAATCCGTATTTGAC (site AAGACTACTGT) | 1.19
68 | ACGACTACATGGACCGGTTTTCCCGGTAATCCGTATTTGAC (site ACGACTACTGT) | 2.45
69 | ACGACTACATGGACCGGTTTTCCCGGTAATCCGTATTTGAC (site AGGACTACTGT) | 0.613
70 | ACGACTACATGGACCGGTTTTCCCGGTAATCCGTATTTGAC (site ATGACTACTGT) | 1.69
71 | ACGAGGCCATGGACCGGTTTTCCCGGTAATCCGTATTTGCC (site ACGAGGCCTGG) | 0.486
72 | ACGAGTCCATGGACCGGTTTTCCCGGTAATCCGTATTTGGG (site ACGAGTCCTCC) | 0.00727
